Test results taken from US6989396B2, “Tropane alkaloid multidrug resistance inhibitors from Erythroxylum pervillei and use of the same” (The Board of Trustees of the University of Illinois, priority 2001, dated 2006).
“And” between values parts separate entries of the source, which are not always exact repeats. Equal entries are not always repeated. Where two headings read alike, the source gives them in different places. Marks after values point to notes of the source that are not given here.

Columns and labels:
Col2, colon cancer = experiment: In vitro cytotoxicity, human tumor panel: Col2; assay type: cell-based; conditions: Homo sapiens, read-out: ED50 Col2
In short: (§1)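 Readout: cell kill across human tumor lines by an established cytotoxicity method; KB-V1 also assayed with VLB co-present versus absent.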

KB-V1, drug resistant KB = experiment: In vitro cytotoxicity, human tumor panel: KB-V1 with or without vinblastine; assay type: cell-based
Experimental: (§2) Cytotoxicity assay. Compounds 1–9 were evaluated for cytotoxic activity against a panel of human cancer cell lines, including KB-V1 in the presence and absence of VLB, according to an established protocol (68).

CEM/VLB100 cells = experiment: MDR reversal in drug-resistant human leukemia CEM/VLB100 cells; assay type: cell-based; conditions: for IC50: Homo sapiens
Experimental: (§3) Cytotoxic potential. The cytotoxic potential of test substances with KB-3, KB-V1 and KB-8-5 cells was determined as described previously (24). Briefly, various concentrations of test compounds (dissolved in 10 μl of 10% DMSO) were transferred to 96-well plates, and 190 μl aliquots of cell suspensions (5×10^4 cells/ml) were added to each well. The plates then were incubated for 72 hours at 37° C. (100% humidity with a 5% CO2 atmosphere in air), and 100 μl of cold 20% aqueous trichloroacetic acid were added to the growth medium in each well to fix the cells. The cultures were incubated at 4° C. for 30 minutes, washed, air-dried, stained with sulforhodamine B solution, and washed with 1% acetic acid. […] In each case, a zero-day control was performed by adding an equivalent number of cells to several wells and incubating at 37° C. for 30 minutes, and processing as described above. Optical density values obtained with the zero-day control were subtracted, and cell survival, relative to control (solvent-treated) cultures, was calculated. The cytotoxic potential of the compounds with CEM and CEM/VLB100 cells was determined as described by Beck et al. (30). Cells were grown in 24-well plates at a density of 5–6×10^5 cells/ml. At 48 hours, the cell number was determined using a Coulter Counter, with a channelizer to distinguish cells from debris.

KB-8-5 cells [1] = experiment: In vivo hollow fiber test: KB-8-5; design: species or system NCr nu/nu mice
Experimental: In vivo hollow fiber test. […] Confluent monolayers of KB-3, KB-V1 or KB-8-5 cells were harvested, collected by centrifugation and resuspended in conditioned medium at a concentration of 7.5×10^5 cells/ml.
Test compounds were administrated once daily by intraperitoneal injection from day 3–6 after implantation. Body weights were measure daily.
After incubating at 37° C. for 4 hours, the culture medium was aspirated and the samples were washed twice with normal saline containing 2.5% protamine sulfate solution by overnight incubation at 4° C. […] The formazan was extracted from each sample with DMSO (250 μl/well) for 4 hours at room temperature on a rotation platform.

[2] = tested on: LNCaP, hormone-dependent prostate cancer; experiment: In vitro cytotoxicity, human tumor panel: LNCaP; assay type: cell-based; conditions: Homo sapiens, LNCaP, read-out: ED50 LNCaP
In short: as §1

[3] = tested on: SKOV3 (ovarian adenocarcinoma); experiment: Cytotoxicity in ovarian adenocarcinoma SKOV3 (pGp -ve); assay type: cell-based; conditions: Homo sapiens, SK-OV-3, read-out: IC50 SKOV3 (pGp − ve)
Experimental: as §2

KB-8-5 cells [4] = experiment: Reversal of MDR, cell survival assay: KB-8-5 with or without colchicine; assay type: cell-based, human; conditions: for Ratio of IC50 values KB-3/[KB-8-5 (+)] / Ratio of IC50 values [KB-8-5 (−)]/[KB-8-5 (+)]: colchicine 10 ng/ml
Experimental: as §3

[5] = tested on: SW626, human ovarian adenocarcinoma; experiment: In vitro cytotoxicity, human tumor panel: SW626; assay type: cell-based; conditions: SW626, read-out: ED50 SW626
In short: as §1

[6] = target: T1, Pgp (KB-V1 cell membrane vesicles) (Homo sapiens, UniProt P08183); experiment: [3H]Vinblastine accumulation with KB-V1 cell membrane vesicles; assay type: binding
T1 construct: Cell membrane vesicles were prepared from KB-V1 cells following literature procedures; endogenous in cells; host or cells: KB-V1 cells (vinblastine-selected multidrug-resistant KB line); plasma membrane vesicles
Experimental: [^3H]Vinblastine accumulation with KB-V1 vesicles. Cell membrane vesicles were prepared from KB-V1 cells following literature procedures (31, 32) with some modifications. Medium was removed from KB-V1 cells in log growth phase (about 80% confluence) and the cells were rinsed with ice-cold PBS followed by ice-cold PBS containing 2 mM EDTA. Aprotinin (1 mg/ml) was then added, and, after a 10 minutes incubation at room temperature, the cells were harvested by gentle aspiration with a serological pipette and collected by centrifugation (100×g for 5 minutes). The cells were suspended in 0.25 M sucrose buffer (0.01 M Tris-HCl, pH 7.5, containing 0.25 M sucrose, 0.2 mM CaCl2, 1 mM EDTA) and homogenized with a Polytron at 2,500 rpm for 30 seconds. […] The homogenate then was diluted with four volumes of 0.025 M sucrose solution (0.01 M Tris-HCl, pH 7.5, containing 0.025 M sucrose) and centrifuged (1,000×g for 10 minutes). […] The interface (about 5 ml) was collected and diluted with four volumes of 0.25 M sucrose, 0.01 M Tris-HCl, pH 7.5, and centrifuged at 100,000×g for 1 hour. The resulting vesicle pellet was suspended in PBS containing 1 mM phenylmethylsulfonyl fluoride, using a 25-gauge needle, and stored at −80° C. Protein content was determined using a bicinchoninic acid protein assay kit with BSA as a standard (33).
Vinblastine accumulation with membrane vesicles assays were performed in 96-well plates as described previously (23, 24). […] Various concentrations of test samples, dissolved in 5 μl of DMSO, were then added (final volume, 100 μl), and incubations were conducted at ambient temperature for 20 minutes. For kinetic studies, various concentrations of [^3H]vinblastine were used. Reactions were terminated by aspirating the contents of each well onto a glass filter filter (printed type A filtermats, Wallac) using a 96-well harvester (Harvester 96, Tomtec). […] Nonspecific binding was determined by performing similar incubations with reaction mixtures containing a 1,000-fold excess of unlabeled vinblastine. Nonspecific binding was subtracted from all total-binding data to yield specific binding.

[7] = tested on: KB, oral epidermoid carcinoma; experiment: In vitro cytotoxicity, human tumor panel: KB; assay type: cell-based; conditions: Homo sapiens, read-out: ED50 KB
In short: as §1

[8] = pervilleine A 5 μM, verapamil 10 μM
[9] = summation of single-agent inhibitions

T1 sequence (P08183 whole entry): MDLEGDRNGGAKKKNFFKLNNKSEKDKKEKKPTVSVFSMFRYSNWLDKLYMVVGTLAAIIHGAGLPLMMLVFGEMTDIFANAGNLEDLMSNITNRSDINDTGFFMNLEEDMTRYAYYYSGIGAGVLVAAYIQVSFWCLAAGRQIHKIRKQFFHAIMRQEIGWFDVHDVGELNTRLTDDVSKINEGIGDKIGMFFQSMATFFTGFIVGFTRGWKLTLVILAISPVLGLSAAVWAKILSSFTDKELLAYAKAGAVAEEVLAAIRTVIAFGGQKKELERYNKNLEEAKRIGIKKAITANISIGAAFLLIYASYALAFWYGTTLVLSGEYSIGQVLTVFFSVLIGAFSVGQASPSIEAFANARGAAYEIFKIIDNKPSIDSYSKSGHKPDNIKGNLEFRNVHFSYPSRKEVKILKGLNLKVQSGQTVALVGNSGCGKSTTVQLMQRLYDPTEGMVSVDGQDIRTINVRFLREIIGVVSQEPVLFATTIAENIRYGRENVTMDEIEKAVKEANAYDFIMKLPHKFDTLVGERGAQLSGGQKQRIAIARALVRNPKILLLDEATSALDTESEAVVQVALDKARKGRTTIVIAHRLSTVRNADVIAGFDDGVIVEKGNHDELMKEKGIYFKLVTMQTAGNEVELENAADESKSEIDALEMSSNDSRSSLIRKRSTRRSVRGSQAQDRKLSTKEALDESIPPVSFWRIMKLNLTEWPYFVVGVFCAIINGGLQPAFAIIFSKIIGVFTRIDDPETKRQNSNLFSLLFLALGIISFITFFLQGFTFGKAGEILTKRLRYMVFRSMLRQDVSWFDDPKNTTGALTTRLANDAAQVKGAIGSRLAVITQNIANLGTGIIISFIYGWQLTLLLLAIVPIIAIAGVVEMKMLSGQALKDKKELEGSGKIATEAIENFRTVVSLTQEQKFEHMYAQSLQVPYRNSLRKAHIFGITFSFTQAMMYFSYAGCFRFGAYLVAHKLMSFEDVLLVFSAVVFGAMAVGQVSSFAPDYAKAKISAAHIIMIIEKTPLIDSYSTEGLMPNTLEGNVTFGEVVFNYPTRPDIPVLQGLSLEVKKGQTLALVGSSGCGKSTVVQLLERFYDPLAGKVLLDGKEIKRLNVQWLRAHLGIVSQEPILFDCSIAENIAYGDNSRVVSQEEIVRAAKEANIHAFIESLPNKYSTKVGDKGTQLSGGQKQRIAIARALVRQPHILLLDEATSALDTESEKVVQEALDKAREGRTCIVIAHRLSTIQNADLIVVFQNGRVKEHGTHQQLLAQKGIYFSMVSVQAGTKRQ

Compound: COc1cc(C=CC(=O)O[C@H]2[C@@H](O)[C@@H]3C[C@H](OC(=O)c4cc(OC)c(OC)c(OC)c4)C[C@H]2N3C)cc(OC)c1OC [Compound 3, 3α-(3,4,5-trimethoxybenzoyloxy)-6β-(3,4,5-trimethoxycinnamoyloxy)-7β-hydroxytropane]
- IC50 (Col2, colon cancer): > 20 µg/mL
- IC50 (KB-V1, drug resistant KB; Homo sapiens, KB-V1, drug-resistant KB assessed in the absence of vinblastine, read-out: ED50 KB-V1−): > 20 µg/mL
- ED50 KB-V1+ (KB-V1, drug resistant KB; drug resistant KB assessed in presence of vinblastine (1 μg/mL)): 0.3 µg/mL
- IC50 (CEM/VLB100 cells; CEM/VLB100, 48 h, read-out: IC50 Modulator only): > 15 µM
- IC50 (CEM/VLB100 cells; CEM/VLB100, read-out: IC50 (Modulator + Daunorubicin)): 0.065 µM
- IC50 (CEM/VLB100 cells; CEM/VLB100, read-out: IC50 (Modulator + Vinblastine)): 0.02 µM
- Ratio of IC50 values Daunorubicin/(Modulator + Daunorubicin) (CEM/VLB100 cells; [8]): 15^c
- Ratio of IC50 values Modulator/(Modulator + Daunorubicin) (CEM/VLB100 cells; [8]): >231^c
- Ratio of IC50 values Modulator/(Modulator + Vinblastine) (CEM/VLB100 cells; [8]): >750^c
- Ratio of IC50 values Vinblastine/(Modulator + Vinblastine) (CEM/VLB100 cells; [8]): 250^c
- Calculated inhibition (vinblastine + reversing agent as single agents), KB-8-5, i.p. site (KB-8-5 cells [1]; [9]): 4.5%
- Calculated inhibition (vinblastine + reversing agent as single agents), KB-8-5, s.c. site (KB-8-5 cells [1]; [9]): 4.9%
- Observed inhibition from coadministration with vinblastine, KB-8-5, s.c. site (KB-8-5 cells [1]; vinblastine 100 μg/kg + reversing agent 0.136 mmol/kg): 28 (P = 0.008) %
- Observed inhibition from coadministration with vinblastine, KB-8-5, i.p. site (KB-8-5 cells [1]; vinblastine 100 μg/kg + reversing agent 0.136 mmol/kg, listed as pervilleine A): 74.7 (P < 0.0001) %
- Growth inhibition, single agent, KB-8-5, s.c. site (KB-8-5 cells [1]; vinblastine 100 μg/kg, reversing agents 0.136 mmol/kg): 2.6%
- Growth inhibition, single agent, KB-8-5, i.p. site (KB-8-5 cells [1]; vinblastine 100 μg/kg, reversing agents 0.136 mmol/kg, i.p. injection once daily days 3–6): 3.3%
- IC50 [2]: > 20 µg/mL
- IC50 [3]: > 10 µM
- IC50 (KB-8-5 cells [4]; Homo sapiens): 14 µM
- Ratio of IC50 values KB-3/[KB-8-5 (+)] (KB-8-5 cells [4]; listed as Pervilleine A): 40.3^d
- Ratio of IC50 values [KB-8-5 (−)]/[KB-8-5 (+)] (KB-8-5 cells [4]; listed as Pervilleine A): 23.3^d
- Ratio of IC50 values KB-3/[KB-8-5 (+)] (KB-8-5 cells [4]; listed as pervilleine A): 40.3
- Ratio of IC50 values [KB-8-5 (−)]/[KB-8-5 (+)] (KB-8-5 cells [4]; listed as pervilleine A): 23.3
- IC50 [5]: > 20 µg/mL
- fold reduction of [3H]vinblastine accumulation ([6]; 0–100 μM, 0.16 μM [3H]vinblastine): about 65 fold
- IC50 ([6]; 0.16 μM [3H]vinblastine, 0.5 mM ATP, 20 minutes, ambient temperature): 3.84 µM
- Ki ([6]; double-reciprocal plots, 0.015–0.16 μM [3H]vinblastine, read-out: Ki, competitive with respect to vinblastine binding): ~7.3 µM and 7.3 µM
- mode of inhibition of vinblastine accumulation ([6]; kinetic analysis, double-reciprocal plots): competitive inhibition
- IC50 [7]: > 20 µg/mL
